Data on 18 compounds can be found in publication PMC5518475 (Bioorganic & medicinal chemistry letters, 2017).

One may read the clearance as the volume of plasma or blood freed of the substance per unit of time.

Each structure is given as a SMILES string.

One data set is described as follows: Rat in vivo PK. The following applies: rat in vivo PK studies.
Data set [1] is described as follows: Predicted hepatic clearance from human hepatic microsomal CLint. The data set is classed as in vitro ADME. As to conditions: based on hepatic microsomal CLint.
Data set [2] in a line: Predicted hepatic clearance from rat hepatic microsomal CLint. The data set is classed as in vitro ADME. As to conditions: based on hepatic microsomal CLint.
For the next data set, the target named is T1, hM4 (Homo sapiens, UniProt P08173).
T1 sequence (P08173 1-479): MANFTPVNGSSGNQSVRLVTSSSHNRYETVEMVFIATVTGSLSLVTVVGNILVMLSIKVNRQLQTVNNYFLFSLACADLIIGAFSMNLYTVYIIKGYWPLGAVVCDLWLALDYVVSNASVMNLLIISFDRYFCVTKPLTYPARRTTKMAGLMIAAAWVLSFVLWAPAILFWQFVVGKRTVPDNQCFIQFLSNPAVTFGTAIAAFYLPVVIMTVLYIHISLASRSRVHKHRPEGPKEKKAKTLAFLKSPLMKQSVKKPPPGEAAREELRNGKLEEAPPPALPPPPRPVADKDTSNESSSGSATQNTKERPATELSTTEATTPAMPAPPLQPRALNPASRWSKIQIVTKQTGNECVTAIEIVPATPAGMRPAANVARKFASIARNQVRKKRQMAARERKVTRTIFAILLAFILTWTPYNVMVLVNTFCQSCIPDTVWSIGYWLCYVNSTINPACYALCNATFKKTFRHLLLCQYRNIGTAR
It counts as cell-based. The following applies: for hM4 pEC50 (±SEM): hM4/Gqi5-CHO cells, EC20 fixed concentration of acetylcholine, mean of n=3.

A short description of the next data set: Dog in vivo PK. The following applies: female, mongrel, plasma, iv.
In another data set the target is T2, human M4 (Homo sapiens, UniProt P08173).
T2 sequence (P08173 1-479): T1 sequence (P08173 1-479)
Kind of data set: ACh CRC fold-shift experiments. The data set is classed as cell-based. As to conditions: operational model.

Another data set has as its target cynomolgus monkey M4 (Macaca fascicularis, UniProt G7PQB4). Kind of data set: ACh CRC fold-shift experiments. The data set is classed as cell-based. As to conditions: operational model.
Another data set relates to CYP450. The experiment in a line: CYP450 time-dependent inhibition. It counts as in vitro ADME.
The next data set can be described thus: Predicted human PK. The following applies: based on moderate and small predicted CL and Vss.
Another data set has as its target human P-gp (Homo sapiens, UniProt P08183). Kind of data set: P-gp efflux in MDCK-MDR1 cells. It counts as in vitro ADME.

Sequence of human P-gp (P08183 whole entry): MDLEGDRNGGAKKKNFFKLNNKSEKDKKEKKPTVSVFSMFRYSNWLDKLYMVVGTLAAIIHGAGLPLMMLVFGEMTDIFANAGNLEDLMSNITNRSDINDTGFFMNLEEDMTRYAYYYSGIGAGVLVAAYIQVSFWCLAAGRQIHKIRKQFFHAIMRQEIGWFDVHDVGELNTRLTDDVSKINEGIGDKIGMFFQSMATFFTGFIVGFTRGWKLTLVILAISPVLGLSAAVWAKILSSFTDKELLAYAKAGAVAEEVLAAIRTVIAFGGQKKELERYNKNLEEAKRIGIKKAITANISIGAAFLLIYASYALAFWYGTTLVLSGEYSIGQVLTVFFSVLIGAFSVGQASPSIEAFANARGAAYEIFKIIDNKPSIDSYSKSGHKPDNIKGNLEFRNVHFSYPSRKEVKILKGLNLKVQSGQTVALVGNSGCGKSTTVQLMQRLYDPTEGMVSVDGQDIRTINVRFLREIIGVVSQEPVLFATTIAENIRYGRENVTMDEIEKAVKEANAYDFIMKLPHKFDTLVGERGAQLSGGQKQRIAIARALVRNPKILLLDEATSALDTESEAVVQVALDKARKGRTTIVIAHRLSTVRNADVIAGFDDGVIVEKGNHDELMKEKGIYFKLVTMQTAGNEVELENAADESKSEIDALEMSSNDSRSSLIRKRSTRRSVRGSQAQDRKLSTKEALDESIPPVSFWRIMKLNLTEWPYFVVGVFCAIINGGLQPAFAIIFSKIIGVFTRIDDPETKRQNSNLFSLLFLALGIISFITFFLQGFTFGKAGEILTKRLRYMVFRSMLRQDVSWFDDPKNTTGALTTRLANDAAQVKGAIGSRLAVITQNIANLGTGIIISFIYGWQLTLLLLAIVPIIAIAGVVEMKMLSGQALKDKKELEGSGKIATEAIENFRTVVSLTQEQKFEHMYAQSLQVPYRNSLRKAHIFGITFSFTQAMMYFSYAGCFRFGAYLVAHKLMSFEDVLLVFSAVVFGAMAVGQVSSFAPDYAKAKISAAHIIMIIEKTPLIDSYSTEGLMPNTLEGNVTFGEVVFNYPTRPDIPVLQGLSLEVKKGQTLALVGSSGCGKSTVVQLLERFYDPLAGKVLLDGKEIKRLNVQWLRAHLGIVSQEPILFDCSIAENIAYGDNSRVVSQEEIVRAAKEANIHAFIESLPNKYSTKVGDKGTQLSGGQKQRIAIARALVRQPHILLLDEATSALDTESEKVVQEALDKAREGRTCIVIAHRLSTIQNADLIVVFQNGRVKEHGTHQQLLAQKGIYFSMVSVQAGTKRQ

Consider `COc1cc(N2CC(NC(=O)c3sc4nnc(C)c(C)c4c3N)C2)ccn1` [Compound 16o], for which the “rat in vivo PK finding on metabolism” value in the data set “Rat in vivo PK” was “evidence for extrahepatic non-CYP450 metabolism”. With `Cc1nnc2sc(C(=O)NC3CN(c4ccc(C(F)(F)F)nc4)C3)c(N)c2c1C` [Compound 16j], the results for the “predicted CLhep” value in data set [1] and in data set [2] were 5.6 mL/min/kg and 18 mL/min/kg, respectively. As for `Cc1nnc2sc(C(=O)NC3CN(c4ccc(S(=O)(=O)C(F)(F)F)cc4)C3)c(N)c2c1C` [Compound 17f], at hM4, the “weaker hM4 activity compared to that of 17j” value is reported as ~ 10 fold. For `Cc1nnc2sc(C(=O)NC3CN(c4cccc(F)c4F)C3)c(N)c2c1C` [Compound 17j], the Ames test result in the data set “Ames test” is “no evidence of mutagenesis”. For the same compound, the clearance in “Dog in vivo PK” was 17 mL/min/kg. For the same compound, the “human M4 αβ” value on human M4 worked out at 380. In addition, on cynomolgus monkey M4, the “cynomolgus monkey M4 αβ” value is listed as 120. Besides, the “time-dependent CYP450 inhibition” value with CYP450 is given as “no evidence for time-dependent inhibition”. Also, the “predicted human t1/2” value in the data set “Predicted human PK” was 1 to 2 h. Turning to `Cc1nnc2sc(C(=O)NC3CN(c4ccccn4)C3)c(N)c2c1C` [Compound 16d], the “hM4 pEC50 (±SEM)” value on hM4 was 6.99±0.18. Same read-out and setting: for `Cc1nnc2sc(C(=O)NC3CN(c4ccnc(Cl)c4)C3)c(N)c2c1C` [Compound 16n] the value was 6.80±0.19.

On to `Cc1nnc2sc(C(=O)NC3CN(c4nc5cccnc5s4)C3)c(N)c2c1C` [Compound 16c], for which the figures for the “predicted CLhep” value in data set [1] and in data set [2] were 12 mL/min/kg and 41 mL/min/kg, respectively. For the same compound, the “hM4 pEC50 (±SEM)” value on hM4 stood at 7.04±0.16. For the compound `Cc1nnc2sc(C(=O)NC3CN(c4ccc(F)cc4F)C3)c(N)c2c1C` [Compound 17h], the “hM4 pEC50 (±SEM)” value at hM4 was 7.49±0.12. As for `Cc1nnc2sc(C(=O)NC3CN(c4cccnc4F)C3)c(N)c2c1C` [Compound 16i], the “hM4 pEC50 (±SEM)” value on hM4 was found to be 7.74±0.22. Besides, the “human P-gp efflux substrate” value at human P-gp is recorded as “substrates for human P-gp efflux”. With `Cc1nnc2sc(C(=O)NC3CN(c4cccnc4)C3)c(N)c2c1C` [Compound 16e], the “human P-gp efflux substrate” value on human P-gp is listed as “substrates for human P-gp efflux”.

Regarding `Cc1nnc2sc(C(=O)NC3CN(c4ccncc4Cl)C3)c(N)c2c1C` [Compound 16p], the “rat in vivo PK finding on metabolism” value in “Rat in vivo PK” was “evidence for extrahepatic non-CYP450 metabolism”.

Regarding `Cc1nnc2sc(C(=O)NC3CN(c4cc(F)nc(F)c4)C3)c(N)c2c1C` [Compound 16q], on human P-gp, the “human P-gp efflux substrate” value is given as “substrates for human P-gp efflux”. Turning to `Cc1nnc2sc(C(=O)NC3CN(c4ccncn4)C3)c(N)c2c1C` [Compound 16h], at hM4, the “hM4 pEC50 (±SEM)” value was 7.48±0.17. Regarding `Cc1nnc2sc(C(=O)NC3CN(c4nc5ccccc5o4)C3)c(N)c2c1C` [Compound 16b], on hM4, the “hM4 pEC50 (±SEM)” value turned out to be 6.45±0.19.

On to `Cc1nnc2sc(C(=O)NC3CN(c4ccc(S(=O)(=O)C(F)F)cc4)C3)c(N)c2c1C` [Compound 17g], for which, on hM4, the “weaker hM4 activity compared to that of 17j” value is ~40 fold and the “hM4 pEC50 (±SEM)” value is 6.63±0.29.

With `Cc1nnc2sc(C(=O)NC3CN(C(=O)OCc4ccccc4)C3)c(N)c2c1C` [Compound 6a], the “hM4 pEC50 (±SEM)” value on hM4 is reported as 7.62±0.19. Still for that read-out and setting: with `Cc1nnc2sc(C(=O)NC3CN(C(=O)c4ccccc4)C3)c(N)c2c1C` [Compound 6f] the figure was 6.22±0.25; with `Cc1cccc(OC(=O)N2CC(NC(=O)c3sc4nnc(C)c(C)c4c3N)C2)c1` [Compound 6c], 7.23±0.17.
